Experiment [1] has as its system mouse organotypic cerebellar slices. As to the kind of experiment: Remyelination of organotypic cerebellar slices after LPC demyelination (Mbp mRNA by quantitative PCR). The format is cell-based. The conditions noted are these: LPC 0.4 mg/ml, then treatment in serum-free culture medium for 14-16 days; barbadin 16 µM, 7α,25OHC 0.1 µM, NIBR189 10 µM; concentration of CF3-7α,25OHC not given; vs untreated LPC slices. The procedure:
Organotypic cerebellar slices were sampled from ten-day old mice and then grown in an incubator for 14 days. After 14 days the myelin was chemically removed with LPC (0.4 mg/ml). Following the removal of the myelin sheaths, the slices were treated with: • 1. the control group: regular culture medium, without LPC • 2. LPC, then on serum-free culture medium for 14-16 days • 3. LPC followed by barbadin 16 µM in serum-free culture medium for 14-16 days • 4. LPC followed by 7α,25OHC 0.1 µM in serum-free culture medium for 14-16 days • 5. LPC followed by NIBR189 10 µM in serum-free culture medium for 14-16 days • 6. LPC followed by barbadin 16 µM + 7α,25OHC 0.1 µM in serum-free culture medium for 14-16 days
Once the experiment was completed (remyelination for 14-16 days) the slices were collected and MBP mRNA levels were measured by the PCR quantitative method. In the mouse organotypic cerebellar slices in which myelin sheaths were chemically removed with lysophosphatidylcholine (LPC) spontaneous myelin regeneration took place except for the slices treated with a selective EBI2 receptor antagonist (NIBR189). The results once again reveal key significance of EBI2 intracellular signalling for myelin regeneration. […] Barbadin, which inhibits internalisation of the EBI2 receptor, is necessary to achieve the therapeutic effect (faster remyelination) in the case of non-modified oxysterol (Fig 1 and Fig 2a).

For experiment [2], the system named is mice in the cuprizone model. As to the kind of experiment: Cuprizone model: mass spectrometer imaging and lipid quantification in brain sections. The format is in vivo. From the text:
Measurement of lipoprotein density in myelin sheaths, taken on sections of brains of the mice in the cuprizone model. The mice in the cuprizone model subject were divided into 6 groups: • #1. control group: regular cuprizone-free chow for 9 weeks. The mice were euthanised after 9 weeks and tissue samples were taken for analysis. In these mice no removal of myelin sheaths occurred. • #2. control group with cuprizone: chow containing cuprizone for 9 weeks. The mice were euthanised after 9 weeks and tissue samples were taken for analysis. In the mice fed with chow containing cuprizone myelin sheaths were removed. • #3. vehicle control group - the mice were fed with chow containing cuprizone for 9 weeks, and then with regular chow without cuprizone for 2 weeks. Over the 2 weeks on regular show the mice in the vehicle control group were first injected with vehicle #1: DMSO, intraperitoneally, 150 µl once a day, and then with vehicle #2: canola oil, subcutaneously, 150 µl once a day. • #4. barbadin control group - the mice were fed with chow containing cuprizone for 9 weeks and then with regular chow without cuprizone for 2 weeks. […]
Mouse brain sections were imaged using a mass spectrometer and then the lipid density was quantified (Fig 4). […]

Experiment [3] has as its system CD4+ cells. The experiment in a line: Cuprizone model: immunofluorescently tagged CD4+ cells in the central part of the corpus callosum. The format is in vivo, mice. The conditions noted are these: after 14 days of treatment in the cuprizone model, group E. An excerpt:
Measurement of the quantity of immunofluorescently-tagged CD4+ cells in the central part of the corpus callosum following 14 days of treatment in the cuprizone model (Fig 7). Morphology of mouse blood in the cuprizone model and the in vivo model testing short-term pharmacotherapy of oxysterol CF3-7α,25OHC (Fig 10).
A (Fig 7) control group: regular cuprizone-free chow for 9 weeks. Mice were euthanised after 9 weeks and tissue samples were taken for analysis. In these mice, myelin sheaths were not removed.
B (Fig 7) control group with cuprizone: chow containing cuprizone for 9 weeks. The mice were euthanised following 9 weeks and tissue samples were taken for analysis. In the mice fed with cuprizone-containing chow myelin sheaths were removed.
C (Fig 7) or #3 (Fig 8 and 9) vehicle control group - the mice were fed with chow containing cuprizone for 9 weeks, and then with regular chow without cuprizone for another 2 weeks. Over the 2 weeks on regular chow the mice in the vehicle control group were first injected vehicle #1: DMSO (intraperitoneal injection), 150 µl once a day, and then vehicle #2: canola oil, subcutaneously, 150 µl once a day.
E (Fig 7) or #5 experimental group with oxysterol CF3-7α,25OHC - the mice were fed with chow containing cuprizone for 9 weeks, and then with regular chow without cuprizone for another 2 weeks. […]

“Also recorded” adds a separate entry of the source.

Regarding `C[C@H](CCCC(C)(C)O)[C@H]1CC[C@H]2[C@H]3[C@H](CC[C@]12C)[C@@]1(C)CC[C@H](O)CC1=C[C@]3(O)C(F)(F)F` [CF3-7α,25OHC, cholestene-7β-trifluoromethyl,3β,7α,25-triol], the “remyelination (Mbp expression)” value in experiment [1] is “remyelinate quicker than slices not treated with anything; also recorded: remyelinate faster than the untreated slices”. In addition, the “content of cholesterol in the corpus callosum” value in experiment [2] (group E (CF3-7α,25OHC 20 mg/kg) compared to control group treated with vehicles) is recorded as “higher”. In experiment [2] (group E compared to untreated group C), the “number of lipids with higher synthesis / concentration in the corpus callosum (brain)” value turned out to be 15. Also, the “count of CD4+ cells in the corpus callosum” value in experiment [3] is “fewest; also recorded: lowest count”.
